Assay results: US4701440A (Hoechst Aktiengesellschaft, priority 1983, dated 1987)

Legend:
[1] = cited from earlier work
[2] = biological test, activity compared with unmodified insulin

## Porcine insulin-Arg^B31 OH
[1]; according to Chance, Excerpta Medica Int. Congress Series No. 231
  activity relative to unmodified porcine insulin: 62%

## insulin-Arg^B31 -Arg^B32 -OH
[2]
  biological activity compared with unmodified insulin: approximately the same level as that of unmodified insulin

## insulin-Arg^B31 -OH
[2]
  biological activity compared with unmodified insulin: approximately the same level as that of unmodified insulin

## proinsulin: proinsulin, insulin precursor containing the C-peptide
[1]; intact proinsulin vs insulin
  biological activity as fraction of that of insulin: about 1/8
